Patent publication US9371331B2, “Modulators of methyl modifying enzymes, compositions and uses thereof” (Constellation Pharmaceuticals, Inc., priority 2012, dated 2016)
Like-named read-outs stand apart in the source and are kept apart here.

Columns and labels:
[1] = test system: H3K27me3 mark in HeLa cells; assay: H3K27me3 Alpha Hela Assay (AlphaLISA); type: cell-based; conditions: Homo sapiens, 72 hrs, read-out: H3K27me3_Alpha_HeLa_ (EC50)
Experimental: H3K27me3 Alpha Hela Assay (AlphaLISA).
Ten different doses of each test compound (in a series of 3-fold dilutions) were plated in duplicate 384-well tissue culture treated plates (Catalog #781080; Greiner Bio One; Monroe, N.C.). Hela cells grown in culture were trypsinized and counted using a Countess® cell counter (Catalog #C10281; Life Technologies, Grand Island, N.Y.). Cell were diluted to 67,000 cells per mL in 10% DMEM (Catalog #10569-010 Life Technologies. Grand Island, N.Y.) and 15 μL (1,000 cells) were plated into each well using the Biotek MicroFlo™ Select Dispenser (BioTek Instruments. Inc. Vermont, USA),) of the 384-well plate. Plates were incubated at 37° C./5% CO2 for 72 hrs. One of the duplicate plates was processed for HeLa assay and the other for viability.
To the plate processed for AlphaLISA was added 5 μL per well Cell-Histone Lysis buffer (1×) (Catalog #AL009F1 Perkin Elmer; Waltham, Mass.) and the plate was incubated at RT for 30 minutes on a plate shaker with low speed (Model#4625-Q Thermo Scientific; Waltham, Mass.). Then, 10 µL per well Histone Extraction buffer (catalog #AL009F2: Perkin Elmer; Waltham, Mass.) was added and the plate further incubated at RT for 20 min on plate shaker with low speed. To each well was then added 10 μL per well of a 5× mix of anti-K27me3 acceptor beads plus Biotinylated anti-Histone H3 (C-ter) Antibody (diluted to 3 nM final) (Catalog #AL118 Perkin Elmer; Waltham, Mass.). Dilution of the acceptor beads and then anti-Histone H3 was with 1× Histone Detection buffer (Catalog #AL009F3 Perkin Elmer; Waltham, Mass.) which was produced diluted from the 10× stock provided. The plate was sealed with an aluminum plate sealer and incubated at 23° C. for 60 min. We then added 10 μL 5× solution of Streptavidin Donor beads (Catalog #6760002 Perkin Elmer; Waltham, Mass.) (20 μg/mL final in 1× Histone Detection Buffer), sealed the plate with Aluminum plate sealer and incubated at 23° C. for 30 min. The plates were then read using an EnVision-Alpha Reader (model #2104 Perkin Elmer: Waltham, Mass.).
Data from both assays was analyzed using Assay Assistant (Constellation Pharmaceuticals In-house product) and Activity Base (IDBS Ltd. Surrey, UK) template. Data files were imported to Assay Assistant and assay conditions were specified. A unique Analysis ID was created and the data files exported to Activity Base. An analysis template was created on Activity Base to measure dose-dependent inhibition of H3K27me3 mark and cell viability respectively. Readout of DMSO wells were used to normalize the data. Resulting curves were fitted using Activity base software Model 205 (IDBS Ltd, Surrey, UK). The data was checked for quality, validated and integrated in excel format using SARview (IDBS Ltd, Surrey, UK).

Y641N EZH2 = Y641N EZH2 (Homo sapiens, UniProt Q15910, Y641N); assay: Y641N EZH2 assay: as EZH2 assay, with reconstituted H3K27Me2 oligonucleosomes as substrate; type: biochemical
Y641N EZH2, sequence (Q15910 whole entry Y641N): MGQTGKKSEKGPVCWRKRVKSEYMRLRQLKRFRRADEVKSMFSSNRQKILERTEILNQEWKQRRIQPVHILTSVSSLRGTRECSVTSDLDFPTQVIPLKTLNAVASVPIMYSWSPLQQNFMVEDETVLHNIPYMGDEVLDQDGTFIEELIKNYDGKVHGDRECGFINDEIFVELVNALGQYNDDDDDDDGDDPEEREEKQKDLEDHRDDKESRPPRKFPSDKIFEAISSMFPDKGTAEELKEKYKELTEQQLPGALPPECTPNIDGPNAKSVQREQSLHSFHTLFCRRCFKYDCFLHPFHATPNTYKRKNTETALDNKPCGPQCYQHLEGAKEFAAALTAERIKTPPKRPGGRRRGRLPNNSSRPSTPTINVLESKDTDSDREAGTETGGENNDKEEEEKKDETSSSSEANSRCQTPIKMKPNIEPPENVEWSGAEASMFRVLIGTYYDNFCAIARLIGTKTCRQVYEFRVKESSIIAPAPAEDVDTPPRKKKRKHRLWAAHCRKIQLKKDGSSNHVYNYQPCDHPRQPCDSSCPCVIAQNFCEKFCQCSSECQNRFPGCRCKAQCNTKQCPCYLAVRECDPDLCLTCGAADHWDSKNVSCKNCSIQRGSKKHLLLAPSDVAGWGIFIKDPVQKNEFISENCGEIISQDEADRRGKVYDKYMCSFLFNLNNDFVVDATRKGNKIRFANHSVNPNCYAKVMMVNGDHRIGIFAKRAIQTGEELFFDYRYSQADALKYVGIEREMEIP
Y641N EZH2, sequence (O75530 whole entry partner): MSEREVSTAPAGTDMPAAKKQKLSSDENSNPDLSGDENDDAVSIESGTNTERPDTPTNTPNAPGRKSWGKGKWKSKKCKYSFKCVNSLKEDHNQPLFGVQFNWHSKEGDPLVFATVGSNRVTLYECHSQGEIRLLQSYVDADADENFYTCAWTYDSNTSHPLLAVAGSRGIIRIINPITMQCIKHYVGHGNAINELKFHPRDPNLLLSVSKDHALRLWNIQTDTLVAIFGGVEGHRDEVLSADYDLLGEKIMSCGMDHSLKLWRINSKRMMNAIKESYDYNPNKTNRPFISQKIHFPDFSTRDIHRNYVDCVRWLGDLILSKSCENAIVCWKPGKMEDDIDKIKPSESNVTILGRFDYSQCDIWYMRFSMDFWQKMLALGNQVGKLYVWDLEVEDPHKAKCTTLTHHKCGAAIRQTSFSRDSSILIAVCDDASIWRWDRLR
Y641N EZH2, sequence (Q15022 whole entry partner): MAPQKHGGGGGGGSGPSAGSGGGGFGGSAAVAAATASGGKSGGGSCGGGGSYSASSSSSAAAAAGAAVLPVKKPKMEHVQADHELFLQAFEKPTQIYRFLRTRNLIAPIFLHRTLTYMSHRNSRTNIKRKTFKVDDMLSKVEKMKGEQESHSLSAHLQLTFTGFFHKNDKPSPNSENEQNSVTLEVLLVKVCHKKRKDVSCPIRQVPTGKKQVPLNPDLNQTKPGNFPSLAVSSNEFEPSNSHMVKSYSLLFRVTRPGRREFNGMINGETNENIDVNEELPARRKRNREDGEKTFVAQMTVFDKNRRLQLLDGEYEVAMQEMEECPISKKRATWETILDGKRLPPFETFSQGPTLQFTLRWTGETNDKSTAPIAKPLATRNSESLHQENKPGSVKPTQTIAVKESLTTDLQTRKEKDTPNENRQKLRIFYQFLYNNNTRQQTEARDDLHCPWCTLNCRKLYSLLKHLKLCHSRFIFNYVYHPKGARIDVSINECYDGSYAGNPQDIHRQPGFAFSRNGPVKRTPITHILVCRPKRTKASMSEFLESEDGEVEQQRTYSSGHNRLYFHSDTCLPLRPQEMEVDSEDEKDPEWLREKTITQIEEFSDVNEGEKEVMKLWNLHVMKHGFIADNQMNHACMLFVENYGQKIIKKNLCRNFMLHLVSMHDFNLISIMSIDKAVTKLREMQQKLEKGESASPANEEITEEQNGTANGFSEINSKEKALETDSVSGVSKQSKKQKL

EZH2 (rPRC2) = EZH2 (rPRC2) (Homo sapiens, UniProt Q15910); assay: EZH2 assay: rPRC2, biotinylated oligonucleosomes, 3H SAM methyl transfer (FlashPlate scintillation); type: biochemical; conditions: biotinylated oligonucleosome substrate
EZH2 (rPRC2), sequence (Q15910 whole entry): as the sequence (Q15910 whole entry Y641N) above, with N641Y counted along it
EZH2 (rPRC2), sequence (O75530 whole entry partner): as the sequence (O75530 whole entry partner) above
EZH2 (rPRC2), sequence (Q15022 whole entry partner): as the sequence (Q15022 whole entry partner) above

[2] = test system: H3K27me3 mark in HeLa cells; assay: H3K27me3 MSD Hela Assay; type: cell-based; conditions: Homo sapiens, read-out: H3K27me3_MSD_HeLa_ (EC50)
In short: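 HeLa cells treated with compound at various concentrations for 96 h at 37 °C, then lysed with high-salt extraction. H3K27me3 measured by MSD electrochemiluminescence immunoassay on total-H3 capture plates. Dose-dependent inhibition normalised to DMSO wells and fitted to curves.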

[3] = Y641N EZH2 IC50, Y641N mutant EZH2, H3K27Me2 oligonucleosome substrate
[4] = EZH2 IC50, wild-type EZH2 (rPRC2)

Structure (SMILES)	EC50 [1]	IC50 (Y641N EZH2; [3])	IC50 (EZH2 (rPRC2); [4])	EC50 ([2]; HeLa, 96 h)	other results
COc1cc(C)[nH]c(=O)c1CNC(=O)c1c(C)n(C(C)C2CCN(C3COC3)CC2)c2ccccc12 (single isomer, unassigned) [Compound 341, (R or S)-N-((4-methoxy-6-methyl-2-oxo-1,2dihydropyridin-3-yl)methyl)-2-methyl-1-(1-(1-(oxctan-3-yl)piperidin-4-yl)ethyl)-1 H-indole-3-carboxamide]	< 400 nM				
COc1cc(C)[nH]c(=O)c1CNC(=O)c1c(C)n(C(C)C2CCN(C(=O)C(C)C)CC2)c2ccccc12 (single isomer, unassigned) [Compound 342, (R or S)-1-(1-(1-isobulyrylpiperidin-4-yl)ethyl)-N-((4-methoxy-6-methyl-2-oxo-1,2-dihydropyridin-3-yl)methyl)-2-methyl-1H-indole-3-carboxamide]	< 400 nM				
Cc1cc(OC(F)F)c(CNC(=O)c2c(C)n(C(C)C3CCN(S(C)(=O)=O)CC3)c3ccccc23)c(=O)[nH]1 (single isomer, unassigned) [Compound 344, (R or S)-N((4-(difluoromethoxy)-6-methyl-2-oxo-1,2-dihydropyridin-3-yl)methyl)-2-methy1-1-(1-(1-(methylsulfonyl)piperidin-4-yl)ethyl)-1H-indole-3-carboxamide]	< 400 nM				
COc1cc(C)[nH]c(=O)c1CNC(=O)c1c(C)n(C(C)C2CCN(S(C)(=O)=O)CC2)c2ccccc12 (single isomer, unassigned) [Compound 336, (R or S)-N-((4-methoxy-6-methyl-2-oxo-1,2-dihydropyridin-3-methyl)-2 methyl-1-(1-(1-(methylsulfonyl)piperidin-4-yl)ethyl)-1 H-indole-3-carboxamide]	< 400 nM				
Cc1cc(C)c(CNC(=O)c2c(C)n(C(C)C3CCN(C4COC4)CC3)c3ccccc23)c(=O)[nH]1 (single isomer, unassigned) [Compound 375, (R or S)-N-((4,6-dimethyl-2-oxo-1,2-dihydropyridin-3-yl)methyl)-2-methyl-1-(1-(1-(oxctan-3-yl)piperidin-4-yl)ethyl)-1 H-indole-3-carboxamide]	< 400 nM				
Cc1cc(C)c(CNC(=O)c2c(C)n(C(C)C3CCN(C)CC3)c3ccccc23)c(=O)[nH]1 (single isomer, unassigned) [Compound 367, (R or S)-N-((4,6-dimethyl-2-oxo-1,2-dihydropyridin-3-yl)methyl)-2-methyl-1-(1-(1-methylpiperidin-4-yl)ethyl)-1 H-indole-3-carboxamide]	< 400 nM				
CCc1cc(C)[nH]c(=O)c1CNC(=O)c1c(C)n(C(C)C2CCN(C)CC2)c2ccccc12 (single isomer, unassigned) [Compound 366, (R or S)-N-((4-ethyl-6-methyl-2-oxo-1,2-dihydropyridin-3-yl)methyl)-2-methyl-1-(1-(1-methylpiperidin-4-yl)ethyl-1 H-indole-3-carboxamide]	400 to 2000 nM				
COc1cc(C)[nH]c(=O)c1CNC(=O)c1c(C)n(C(C)C2CCOCC2)c2ncncc12 (single isomer, unassigned) [Compound 319, (R or S)-N-((4-methoxy-6-methyl-2-oxo-1,2-dihydropyridin-3-yl)methyl)-6-methyl-7-(1-(tetrahydro-2H-pyran-4-yl)ethyl)-7H-pyrrolo[2,3-d]pyrimidine-5-carboxamide]		< 100 nM	< 100 nM	< 400 nM	
Cc1cc(C)c(CNC(=O)c2c(C)n(C(C)C3CC3)c3ncccc23)c(=O)[nH]1 (racemic) [Compound 211, (±)-1-(1-cyclopropylethyl)-N-((4,6-dimethyl-2-oxo-1,2-dihydropyridin-3-yl)methyl)-2-methyl-1H-pyrrolo[2,3-b]pyridine-3-carboxamide]		100 to 1000 nM	< 100 nM	400 to 2000 nM	
COc1cc(C)[nH]c(=O)c1CNC(=O)c1c(C)n(C(C)c2cccc(C(N)=O)c2)c2ncccc12 (racemic) [Compound 242, (±)-1-(1-(3-carbamoylphenyl)ethyl)-N-((4-methoxy-6-methyl-2-oxo-1,2-dihydropyridin-3-yl)methyl)-2-methyl-1H-pyrrolo[2,3-b]pyridine-3-carboxamide]					IC50 (Y641N EZH2; Y641N mutant EZH2, H3K27Me2 oligonucleosome substrate, read-out: Y641N EZH2 IC50): 100 to 1000 nM; IC50 (EZH2 (rPRC2); wild-type EZH2 (rPRC2), read-out: EZH2 IC50): < 100 nM; EC50 ([2]; HeLa cells, MSD, 96 hours): 2000 to 10000 nM
COc1cc(C)[nH]c(=O)c1CNC(=O)c1c(C)n(C(C)c2ccccc2)c2cnccc12 (single isomer, unassigned) [Compound 258, (R or S)-N-((4-methoxy-6-methyl-2-oxo-1,2-dihydropyridin-3-yl)methyl)-2-methyl-1-(1-phenylethyl)-1H-pyrrolo[2,3-c]pyridine-3-carboxamide]		< 100 nM	< 100 nM	400 to 2000 nM	
Cc1cc(C)c(CNC(=O)c2c(C)n(C(C)c3cccc(C#N)c3)c3ccccc23)c(=O)[nH]1 (single isomer, unassigned) [Compound 227, (R or S)-1-(1-(3-cyanophenyl)ethyl)-N-((4,6-dimethyl-2-oxo-1,2-dihydropyridin-3-yl)methyl)-2-methyl-1H-indole-3-carboxamide]		< 100 nM	< 100 nM	400 to 2000 nM	
Cc1cc(C)c(CNC(=O)c2c(C)n(C(C)c3cccc(S(C)(=O)=O)c3)c3ccccc23)c(=O)[nH]1 (racemic) [Compound 210, (±)-N-((4,6-dimethyl-2-oxo-1,2-dihydropyridin-3-yl)methyl)-2-methyl-1-(1-(3-(methylsulfonyl)phenyl)ethyl)-1H-indole-3-carboxamide]		100 to 1000 nM	< 100 nM	2000 to 10000 nM	
Cc1cc(C)c(CNC(=O)c2c(C)n([C@H](C)c3ccccc3)c3nc(N4CCOCC4)ncc23)c(O)n1 [Compound 143, (R)—N-((2-hydroxy-4,6-dimethylpyridin-3-yl)methyl)-6-methyl-2-morpholino-7-(1-phenylethyl)-7H-pyrrolo[2,3-d]pyrimidine-5-carboxamide]		1000 to 10000 nM	< 100 nM	2000 to 10000 nM	
Cc1cc(C)c(CNC(=O)c2c(C)n(C(C)c3ccn(C)c(=O)c3)c3ccccc23)c(=O)[nH]1 (racemic) [Compound 222, (±)-N-((4,6-dimethyl-2-oxo-1,2-dihydropyridin-3-yl)methyl)-2-methyl-1-(1-(1-methyl-2-oxo-1,2-dihydropyridin-4-yl)ethyl)-1H-indole-3-carboxamide]		100 to 1000 nM	100 to 1000 nM	> 10000 nM	
COc1cc(C)[nH]c(=O)c1CNC(=O)c1c(C)n(C(C)c2cccc(C#N)c2)c2ncccc12 (racemic) [Compound 239, (±)-1-(1-(3-cyanophenyl)ethyl)-N-((4-methoxy-6-methyl-2-oxo-1,2-dihydropyridin-3-yl)methyl)-2-methyl-1H-pyrrolo[2,3-b]pyridine-3-carboxamide]		< 100 nM	< 100 nM	400 to 2000 nM	
CCOCC(C)n1c(C)c(C(=O)NCc2c(OC)cc(C)[nH]c2=O)c2cccnc21 (racemic) [Compound 212, (±)-1-(1-ethoxypropan-2-yl)-N-((4-methoxy-6-methyl-2-oxo-1,2-dihydropyridin-3-yl)methyl)-2-methyl-1H-pyrrolo[2,3-b]pyridine-3-carboxamide]		100 to 1000 nM	< 100 nM	400 to 2000 nM	
COCC(C)n1c(C)c(C(=O)NCc2c(OC)cc(C)[nH]c2=O)c2ccccc21 (stereo not shown) [Compound 219, N-((4-methoxy-6-methyl-2-oxo-1,2-dihydropyridin-3-yl)methyl)-1-(1-methoxypropan-2-yl)-2-methyl-1H-indole-3-carboxamide]		< 100 nM	< 100 nM	400 to 2000 nM	
